Counter-ions that a name gives are not always drawn.
How the values were obtained:
Bcl-2 protein = target: T1, Bcl-2 protein (histag-Bcl-2, UniProtKB P10415) (Homo sapiens, UniProt P10415); assay: Inhibition of Bcl-2 by the fluorescence polarisation technique; format: binding; settings: fluorescence polarisation, 2 hours incubation; read-out: IC50 (nM) Bcl-2 FP
T1 construct: His tag
Protocol: The fluorescence polarisation tests were carried out on microplates (384 wells). The Bcl-2 protein, labelled (histag-Bcl-2 such that Bcl-2 corresponds to the UniProtKB® primary accession number: P10415), at a final concentration of 2.50×10^−8 M, is mixed with a fluorescent peptide (Fluorescein-[…]), at a final concentration of 1.00×10^−8M in a buffer solution (Hepes 10 mM, NaCl 150 mM, Tween20 0.05%, pH 7.4), in the presence or absence of increasing concentrations of test compounds. After incubation for 2 hours, the fluorescence polarisation is measured.

[1] = tested on: RS4;11 leukaemia tumour line; assay: In vitro cytotoxicity (MTT) on RS4;11; format: cell-based; settings: Homo sapiens; RS4;11 cells, 48 hours exposure
Protocol: The cytotoxicity studies were carried out on the RS4;11 leukaemia tumour line.
The cells are distributed onto microplates and exposed to the test compounds for 48 hours.
The cell viability is then quantified by a colorimetric assay, the Microculture Tetrazolium Assay (Cancer Res., 1987, 47, 939-942).

T1 sequence (P10415 whole entry): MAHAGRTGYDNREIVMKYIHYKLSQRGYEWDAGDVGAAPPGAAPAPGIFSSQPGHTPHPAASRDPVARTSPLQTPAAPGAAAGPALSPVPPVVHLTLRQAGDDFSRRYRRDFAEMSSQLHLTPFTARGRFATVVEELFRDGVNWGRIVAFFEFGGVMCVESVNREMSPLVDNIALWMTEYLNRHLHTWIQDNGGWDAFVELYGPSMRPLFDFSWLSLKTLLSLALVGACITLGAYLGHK

Row | Compound | IC50 (Bcl-2 protein) | IC50 [1]
1 | C[C@@H]1Cc2ccccc2CN1C(=O)c1cc2c(cc1-c1cc(C(=O)N(c3ccc(O)cc3)c3ccc(CCN4CCC(F)(F)C4)cc3)c3ccccn13)OCO2 [Example 36, N-{4-[2-(3,3-Difluoropyrrolidin-1-yl)ethyl]phenyl}-N-(4-hydroxyphenyl)-3-(6-{[(3R)-3-methyl-3,4-dihydroisoquinolin-2(1,H)-yl]carbonyl}-1,3-benzodioxol-5-yl)indolizine-1-carboxamide hydrochloride] | 12.6 nM | 49.7 nM
2 | NCC[C@@H]1Cc2ccccc2CN1C(=O)c1cc2c(cc1-c1cc(C(=O)N(c3ccccc3)c3ccc(O)cc3)c3n1CCCC3)OCO2 [Example 37, 3-(6-{[(3S)-3-(2-Aminoethyl)-3,4-dihydroisoquinolin-2(1H)-yl]carbonyl}-1,3-benzodioxol-5-yl)-N-(4-hydroxyphenyl)-N-phenyl-5,6,7,8-tetrahydroindolizine-1-carboxamide hydrochloride] | 2.9 nM | 24.7 nM
3 | O=C(c1cc(-c2cc3c(cc2C(=O)N2Cc4ccccc4C[C@H]2CCCN2CCOCC2)OCO3)n2c1CCCC2)N(c1ccccc1)c1ccc(O)cc1 [Example 38, N-(4-Hydroxyphenyl)-3-(6-{[(3R)-3-[3-(morpholin-4-yl)propyl]-3,4-dihydroisoquinolin-2(1H)-yl]carbonyl}-1,3-benzodioxol-5-yl)-N-phenyl-5,6,7,8-tetrahydroindolizine-1-carboxamide hydrochloride] | 4.6 nM | 9.52 nM
4 | C[C@@H]1Cc2ccccc2CN1C(=O)c1cc2c(cc1-c1cc(C(=O)N(c3ccccc3)c3ccc(O)cc3)c3n1CCCC3)OCO2 [Example 40, N-(4-Hydroxyphenyl)-3-(6-{[(3R)-3-methyl-3,4-dihydroisoquinolin-2(1H)-yl]carbonyl}-1,3-benzodioxol-5-yl)-N-phenyl-5,6,7,8-tetrahydroindolizine-1-carboxamide] | 6 nM | 49 nM
5 | C[C@@H]1Cc2ccccc2CN1C(=O)c1cc2c(cc1-c1cc(C(=O)N(c3ccncc3)c3ccc(O)cc3)c3n1CCCC3)OCO2 [Example 42, N-(4-Hydroxyphenyl)-3-(6-{[(3R)-3-methyl-3,4-dihydroisoquinolin-2(1H)-yl]carbonyl}-1,3-benzodioxol-5-yl)-N-(pyridin-4-yl)-5,6,7,8-tetrahydro-indolizine-1-carboxamide hydrochloride] | 5.1 nM | 57.6 nM

More lines, in order of falling IC50 (Bcl-2 protein), values ahead:

Row | IC50 (Bcl-2 protein) | Compound | IC50 [1]
6 | 41.5 nM | O=C(c1cc(-c2cc3c(cc2C(=O)N2Cc4ccccc4C[C@H]2CCN2CCCC(F)(F)C2)OCO3)n2c1CCCC2)N(c1ccccc1)c1ccc(O)cc1 [Example 41, 3-(6-{[(3S)-3-[2-(3,3-Difluoropiperidin-1-yl)ethyl]-3,4-dihydroiso-quinolin-2(1H)-yl]carbonyl}-1,3-benzodioxol-5-yl)-N-(4-hydroxyphenyl)-N-phenyl-5,6,7,8-tetrahydroindolizine-1-carboxamide hydrochloride] | 294 nM
7 | 4.8 nM | O=C(c1cc(-c2cc3c(cc2C(=O)N2Cc4ccccc4C[C@H]2CCNCC(F)F)OCO3)n2c1CCCC2)N(c1ccccc1)c1ccc(O)cc1 [Example 43, 3-(6-{[(3S)-3-{2-[(2,2-Difluoroethyl)amino]ethyl}-3,4-dihydroisoquinolin-2(1H)-yl]carbonyl}-1,3-benzodioxol-5-yl)-N-(4-hydroxyphenyl)-N-phenyl-5,6,7,8-tetrahydroindolizine-1-carboxamide] | 26 nM
8 | 4.6 nM | Cc1cc(N(C(=O)c2cc(-c3cc4c(cc3C(=O)N3Cc5ccccc5C[C@H]3C)OCO4)n3ccccc23)c2ccc(O)cc2)cc(C)n1 [Example 39, N-(2,6-Dimethylpyridin-4-yl)-N-(4-hydroxyphenyl)-3-(6-{[(3R)-3-methyl-3,4-dihydroisoquinolin-2(1H)-yl]carbonyl}-1,3-benzodioxol-5-yl)indolizine-1-carboxamide hydrochloride] | 26.3 nM
